Here are results for 1 molecule from US11147883B2, “Targeted delivery of drugs, therapeutic nucleic acids and functional nucleic acids to mammalian cells via intact killed bacterial cells” (EnGeneIC Molecular Delivery Pty Ltd, priority 2006, dated 2021).

For the experiment, the system named is human breast cancer cells MDA-MB-468 xenograft. Description: Human breast cancer MDA-MB-468 xenograft in nude mice, i.v. treatment, tumor volume. The experiment is classed as in vivo, Balb/c nu/nu mice. The note with it: i.v. doses on days 21, 28 and 34, 1×10^8 bacteria/dose or free Doxorubicin 7 mg/kg. (In general: Xenograft models place foreign cells or tissue in a host animal.)

Each structure is given as a SMILES string.

Experimental: An anti-EGFR monoclonal antibody was selected because the xenografted cells were human breast cancer cells MDA-MB-468 that are known to overexpress the EGF receptor on the cell surface.
Human breast adenocarcinoma cells (MDA-MB-468, ATCC; human mammary epithelial cells; non-phagocytic) were grown in tissue culture to full confluency in T-75 flasks in RPMI 1640 medium supplemented with 5% Bovine Calf Serum (GIBCO-BRL Life Technologies, Invitrogen Corporation, Carlsbad, Calif., USA) and glutamine (Invitrogen) in a humidified atmosphere of 95% air and 5% CO2 at 37° C. 1×10^6 cells in 50 uL serum-free media together with 50 uL growth factor reduced matrigel (BD Biosciences, Franklin Lakes, N.J., USA) were injected subcutaneously between the shoulder blades of each mouse using a 23-gauge needle. The tumors were measured twice a week using an electronic digital caliper (Mitutoyo, Japan, precision to 0.001) and mean tumor volume was calculated using the formula, length (mm)×width^2 (mm)×0.5=volume (mm^3). 16 days post-implantation, the tumors reached volumes between 40 mm^3 and 70 mm^3, and mice were randomized to four different groups of five per group.
The experiment was designed as follows. Group 1 (control) received an i.v. dose of 100 μl of sterile physiological saline. Group 2 (control) received an i.v. dose of free Doxorubicin (7 mg/kg of mouse body weight). […]

Turning to `COc1cccc2c1C(=O)c1c(O)c3c(c(O)c1C2=O)C[C@@](O)(C(=O)CO)C[C@@H]3O[C@H]1C[C@H](N)[C@H](O)[C@H](C)O1` [free doxorubicin, Doxorubicin], the “anti-tumor effect (tumor volume, FIG. 1)” value is “no anti-tumor effects”.
